Results reported in patent US20070072209A1, “Methods of treatment and diagnosis of Kaposi's sarcoma (KS) and KS related diseases” (priority 2005, published 2007).

Columns and labels:
KSHV-infected DMVEC = assay: PMO antisense inhibition of KSHV-induced spindle cell and foci formation (Example 3); format: cell-based, human; details: for Extent of PMO-induced Inhibition of Spindle Cell Formation: KSHV-infected DMVEC loaded with gene-specific PMO antisense + EPEI; for Phenotype Inhibition (inhibition of spindle cell formation) / KSHV-induced spindle cell / foci formation (in words): KSHV-infected DMVEC; for Phenotype Inhibition (inhibition of spindle cell formation): gene-specific PMO antisense; for KSHV-induced spindle cell / foci formation (in words): PMO antisense, c-Kit: 1.25 nmol PMO + 2.5 μl EPEI per 35 mm dish
Text: Antisense Gene Silencing using PMOs. […] Silencing of such genes precluded progression into the transformed phenotype when silencing occurred prior to transformation, or induced reversion to the normal state when silencing occurred after induction of the transformed state (see TABLE 2 below).
(§1) Introduction of antisense PMO into KSHV-infected DMVEC. Antisense PMO molecules, for delivery purposes, are typically converted to a paired duplex together with a partially complementary cDNA oligonucleotide in the weakly basic delivery reagent ethoxylated polyethylenimine (EPEI) (Summerton, supra). The anionic complex binds to the cell surface, is taken up by endocytosis and eventually released into the cytosol. A protocol for optimum uptake of antisense PMO in immortalized DMVEC was developed using a modification of the EPEI method. Briefly, uninfected, immortalized DMVECs were incubated for 3 hours at 37° C. with 0.6 nmol/well FITC-PMO complexed with EPEI according to the manufacturer's instructions (GeneTools, LLC, One Summerton Way, Philomath, Oreg. 97370) (e.g., 1.25 nMol oligomer with 2.5 μl EPEI reagent per 35 mm dish, allowing for sufficient antisense uptake without non-specific EPEI-induced toxicity). The PMOs were labeled with FITC to allow for monitoring of loading efficiency by fluorescence microscopy.
Specifically, DMVEC were infected with KSHV, plated in 35 mm dishes and allowed to grow to about 90% confluence. For treatment, KSHV-infected cells were treated with the anti-c-Kit PMO-antisense oligomer-EPEI delivery reagent complex and incubated for 3 hours at 37° C. in serum-free medium to allow for oligomer uptake. A titration experiment testing a range of different oligomer/EPEI volumes was used to determine that loading 1.25 nmol oligomer with 2.5 μl EPEI reagent per 35 mm dish allowed efficient antisense uptake without non-specific EPEI-induced toxicity. Control (mock-treated) DMVEC cultures were loaded with EPEI reagent and sterile water or sterile water alone. Upon removal of the oligomer-EPEI solution, cell monolayers were rinsed in serum-free medium fed with complete medium and examined daily for one week by phase microscopy for evidence of phenotypic change.

KSHV = assay: Immunofluorescent staining for latent (LANA-1/ORF73) and early lytic (ORF59) viral proteins after PMO-AS; format: cell-based; details: PMO-AS-treated KSHV-infected DMVEC
Text: KSHV-infected DMVEC. DMVECs were used as an in vitro model for examining cancerous transformation and viral replication, based, inter alia, on that fact that neoplastic cells in KS tumors are predominantly of vascular origin, whereas KSHV is primarily found in cells of endothelial origin. Specifically, a previously described DMVEC system (Moses et al., J. Virol. 73:6892-6902, 1999) was used for studying infection and transformation by KSHV. Briefly, DMVEC's were immortalized with the E6/E7 genes of human papillomavirus (HPV)-16 prior to infection with KSHV. […] KSHV was obtained from the supernatant of KSHV-infected B-cell lines (e.g., TPA-stimulated BCBL-1 cells). Infection was verified by DNA PCR for amplification of the KS330 BamH1 fragment of the ORF 26 gene, and RT-PCR for the spliced mRNA from the ORF29 gene. The percentage of latently infected cells was determined by immunofluorescent staining for LANA/ORF73. Lytic induction was evaluated with antibodies against an early lytic protein ORF59/PF-8 and a late lytic glycoprotein ORF K8.1A/B. DMVEC were used for experiments when 90% of cells expressed ORF73. In the absence of chemical induction, 2-5% of infected cells expressed ORF59 with approximately 10% of the ORF59-positive cells expressing K8.1A/B. Lytic replication can be induced, however, using phorbol esters such as […] (PMA) providing the ability to look for host genes involved in, or modulated by the lytic cycle as well.
To ascertain whether PMO-AS treatment could be indirectly influencing cell phenotype through an effect on KSHV lytic replication, cells treated with PMO-AS against c-Kit, RDC1 and Neuritin were evaluated by immunofluorescent staining for expression of latent (LANA-1/ORF73) and early lytic (ORF59) viral proteins as previously described (Moses, 1999).

DMVEC = assay: Uptake, distribution and persistence of FITC-labeled PMO antisense; format: cell-based, human; details: 3 hours after loading, FITC-labeled PMO with EPEI
Text: as §1
Cellular distribution of introduced FITC-labeled PMO antisense molecules. […]
Therefore, the introduced PMO antisense oligomers were determined to be stable over substantial time periods in DMVEC. […] Moreover, the PMO oligomers were readily taken up by DMVEC and distributed within the cytosol.

Row | Substance | Extent of PMO-induced Inhibition of Spindle Cell Formation (KSHV-infected DMVEC) | Phenotype Inhibition (inhibition of spindle cell formation) (KSHV-infected DMVEC) | KSHV-induced spindle cell / foci formation (in words) (KSHV-infected DMVEC) | expression of ORF73 (latent viral protein) (KSHV) | KSHV-induced spindle cell / foci formation (in words) (KSHV-infected DMVEC; listed as c-Kit) | cells with FITC-PMO concentrated in intracellular vesicles (endosomes) (DMVEC)
1 | RDC-1: PMO antisense to RDC-1, GAAGAGATGCAGATCCATCGTTCTG (SEQ ID NO:15) (all phosphorodiamidate morpholino (PMO); delivered paired with partially complementary DNA oligo (Special Delivery)) | full | full and Full | fully reversed spindle cell formation | maintained expression of ORF73 | – | –
2 | KIT: FITC-labeled PMO targeting the start codon of c-Kit, CGCCTCTCATCGCGGTAGCTGCG (SEQ ID NO:21) (all phosphorodiamidate morpholino (PMO); FITC label attached, position not given here) | full | Full | fully reversed spindle cell formation | maintained expression of ORF73 | did not develop foci | about 70%
3 | Neuritin: PMO antisense to Neuritin, TTAACTCCCATCCTACGTTTAGTCA (SEQ ID NO:19) (all phosphorodiamidate morpholino (PMO); delivered paired with partially complementary DNA oligo (Special Delivery)) | full | Full | fully reversed spindle cell formation | maintained expression of ORF73 | – | –
